In EP0540185A1, “4'-(N-substituted-N-oxide)staurosporine derivatives” (SCHERING CORPORATION, priority 1991, dated 1993):

Columns and labels:
[1] = molecular target: Myosin light chain kinase (MLCK) (Homo sapiens, UniProt Q15746); experiment: Myosin light chain kinase (MLCK) assay; assay type: biochemical; settings: MLCK substrate peptide, 10 nM calmodulin, 10 minutes
Method: (§1) The below listed Test Methods A and B were run in accordance with the procedures described in Bishop, W.R., Petrin, J., Wang, L., Ramesh, U., and Doll, R.J. (1990) Biochemical Pharmacology, Vol. 40,2129-2135 and Hannun et al. J. Biol. Chem. (1985), Vol. 260, 10039-10043, which are herein incorporated by reference with the following modifications.
B. Myosin Light Chain Kinase ("MLCK") Protocol
Myosin light chain kinase (MLCK) assays were conducted in accordance with the methods of the Bishop et al. and Hannun et al. articles listed above in a reaction mixture containing 30 mM MLCK substrate peptide (Lys-Lys-Arg-Pro-Gln-Arg-Ala-Thr-Ser-Asn-Val-Phe-Ser-NH₂), 10 nM calmodulin, 25 mM [g-32P]ATP; 0.1 mM Ca⁺² acetate and 10 mM Mg⁺² acetate. Reactions were stopped after 10 minutes by addition of […] of 375 mM H₃PO₄ and spotting on phosphocellulose P81 paper.

[2] = molecular target: partially purified rat brain PKC; experiment: Mixed micellular protein kinase C (PKC) assay; assay type: biochemical; settings: for IC50: histone III-S substrate, 23°C, 15 min, 2% DMSO; for MLCK/PKC: selectivity, ratio of IC50 MLCK to IC50 PKC
Method: as §1
A. Protein Kinase C ("PKC") Protocol
Mixed micellular protein kinase C assays were conducted in accordance with the methods described in the two articles cited just above (namely, Bishop et al, and Hannun et al), in a reaction mixture (0.25 mL total volume) containing: 20 mM Tris-HCl (pH 7.5); […] histone III-S; 10 mM MgCl₂; 5 mM [g-32P]ATP (4 x 10^6 cpm/mmol); 200 mM CaCl₂; 32 mg/mL of phosphatidylserine; 1.6 mg/mL of 1-oleoyl-2-acetylglycerol and various concentrations of compounds of this invention added from a dimethyl-sulfoxide (DMSO) stock solution. The final concentration of DMSO in the reaction was 2% w/v. Reactions were started by addition of approximately […] of partially purified rat brain PKC and allowed to proceed at 23°C for 15 min. Reactions were terminated by collection of trichloroacetic acid-precipitated phosphorylated histone on GF/C filters using a Brandel Cell Harvester (Model No. M-24-R).

[3] = system: Normal Human Epidermal Keratinocyte (NHEK) Cultures; experiment: Inhibition of spontaneous and induced cornified envelope (CE) formation in NHEK cultures; assay type: cell-based; design: CE formation induced by high calcium-containing media: unit of the concentration uncertain; settings: for CE formation induced by high calcium-containing media: 1.6 mM Ca+2 media
Method: C. Inhidition of Spontaneous and Induced Cornified Envelope ("CE") Formation in Normal Human Epidermal Keratinocyte (NHEK) Cultures.
The data was collected in cultured NHEK cells which were grown in serum-free media to subconflurncy and then treated with DMSO (vehicle control) or various concentration of the compounds of this invention, etretinate (an antipsoriatic aromatic analog of retinoic acid) and staurosporine.
After 15 minutes, the NHEK cells were treated with DMSO (vehicle control), […] of 12-tetradecanoyl-phorbol-13-acetate ("TPA") to evaluate TPA-induced CE formation. In another experiment, the NHEK cells were refed media containing 0.15 mM Ca⁺² (control) or a high calcium-containing media, i.e., a 1.6 mM Ca⁺² media to induce CE formation by such a high calcium-containing media. After 48 hours, the cells so-treated were harvested and viable and total cells were counted. Cornified envelopes were assessed after resuspending cells pellets in buffer containing sodium dodecyl sulfate ("SDS") and dithiothreitol ("DTT"). CE formation induced by TPA or high calcium-containing media was expressed as CE/viable cells and each treatment group was compared to its appropriate control group.

[4] = concentration of <10 mM, NHEK cells

Sequence of Myosin light chain kinase (MLCK) (Q15746 whole entry): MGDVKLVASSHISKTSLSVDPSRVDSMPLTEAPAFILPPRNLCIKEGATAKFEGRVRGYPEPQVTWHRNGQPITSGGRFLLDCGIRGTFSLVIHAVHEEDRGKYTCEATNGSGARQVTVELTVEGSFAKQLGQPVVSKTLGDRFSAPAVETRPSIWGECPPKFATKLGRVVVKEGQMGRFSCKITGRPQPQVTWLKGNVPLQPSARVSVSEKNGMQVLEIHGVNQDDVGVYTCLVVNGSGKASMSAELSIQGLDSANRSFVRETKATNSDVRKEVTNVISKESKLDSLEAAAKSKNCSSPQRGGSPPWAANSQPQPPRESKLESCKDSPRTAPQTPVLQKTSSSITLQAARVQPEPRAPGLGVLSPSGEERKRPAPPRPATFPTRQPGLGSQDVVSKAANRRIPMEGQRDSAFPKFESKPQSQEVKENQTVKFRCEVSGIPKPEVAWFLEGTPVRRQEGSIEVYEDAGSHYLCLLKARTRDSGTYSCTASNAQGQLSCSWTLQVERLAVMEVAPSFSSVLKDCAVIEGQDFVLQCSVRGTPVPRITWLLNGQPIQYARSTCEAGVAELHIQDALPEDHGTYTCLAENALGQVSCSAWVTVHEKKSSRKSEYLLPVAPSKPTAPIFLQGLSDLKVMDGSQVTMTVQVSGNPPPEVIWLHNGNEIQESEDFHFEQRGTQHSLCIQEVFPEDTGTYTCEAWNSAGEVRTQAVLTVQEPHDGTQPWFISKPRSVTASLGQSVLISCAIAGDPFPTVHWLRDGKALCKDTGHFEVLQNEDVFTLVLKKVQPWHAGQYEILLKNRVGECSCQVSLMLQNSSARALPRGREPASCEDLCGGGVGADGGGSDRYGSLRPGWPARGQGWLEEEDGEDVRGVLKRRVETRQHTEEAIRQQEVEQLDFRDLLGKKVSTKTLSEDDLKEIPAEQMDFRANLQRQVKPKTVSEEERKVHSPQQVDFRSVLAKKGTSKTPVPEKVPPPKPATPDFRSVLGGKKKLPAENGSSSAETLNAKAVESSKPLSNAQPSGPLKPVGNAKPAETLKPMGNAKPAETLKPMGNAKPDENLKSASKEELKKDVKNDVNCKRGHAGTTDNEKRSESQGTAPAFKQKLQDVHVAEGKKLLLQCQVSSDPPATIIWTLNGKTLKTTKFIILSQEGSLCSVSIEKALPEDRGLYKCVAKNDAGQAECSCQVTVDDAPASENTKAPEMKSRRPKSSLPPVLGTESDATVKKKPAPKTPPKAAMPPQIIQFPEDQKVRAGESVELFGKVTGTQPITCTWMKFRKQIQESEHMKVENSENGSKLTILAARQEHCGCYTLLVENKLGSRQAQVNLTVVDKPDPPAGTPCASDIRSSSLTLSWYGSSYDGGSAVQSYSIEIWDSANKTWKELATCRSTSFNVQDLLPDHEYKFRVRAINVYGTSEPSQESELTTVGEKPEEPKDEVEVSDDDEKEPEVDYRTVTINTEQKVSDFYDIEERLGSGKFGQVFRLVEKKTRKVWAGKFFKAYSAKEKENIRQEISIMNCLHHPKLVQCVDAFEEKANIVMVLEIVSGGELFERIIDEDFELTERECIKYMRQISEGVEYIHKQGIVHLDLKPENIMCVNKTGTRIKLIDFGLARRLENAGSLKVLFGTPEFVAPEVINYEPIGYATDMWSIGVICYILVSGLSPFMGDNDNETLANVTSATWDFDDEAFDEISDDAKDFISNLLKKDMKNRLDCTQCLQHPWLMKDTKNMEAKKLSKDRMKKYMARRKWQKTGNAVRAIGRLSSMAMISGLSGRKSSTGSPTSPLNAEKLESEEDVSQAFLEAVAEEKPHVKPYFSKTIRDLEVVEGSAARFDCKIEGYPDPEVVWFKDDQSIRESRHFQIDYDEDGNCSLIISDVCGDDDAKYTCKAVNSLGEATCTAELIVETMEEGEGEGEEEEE

SMILES | IC50 [1] | IC50 [2] | MLCK/PKC [2] | also measured
COC1C([N+](C)(C)[O-])CC2OC1(C)n1c3ccccc3c3c4c(c5c6ccccc6n2c5c31)C(=O)NC4 (stereo not drawn) [Example 1, 4′ N-methyl-N-oxide of staurosporine] | 34 nM | 3.1 nM | 11 | 
COC1C([N+](C)([O-])Cc2ccccc2)CC2OC1(C)n1c3ccccc3c3c4c(c5c6ccccc6n2c5c31)C(=O)NC4 (stereo not drawn) [Example 11, 4′-N-benzyl-N-oxide of staurosporine] | 55 nM | 33 nM | 16.7 | CE formation induced by high calcium-containing media ([3]; 500 (unit uncertain) concentration, NHEK cells, 48 hours): 71%; CE formation induced by high calcium-containing media ([3]; 1000 (unit uncertain) concentration, NHEK cells, 48 hours): 74%; TPA-induced CE formation ([3]; concentration of 250 mM, TPA-treated NHEK cells, 48 hours): antagonizes
CN[C@@H]1C[C@H]2O[C@@](C)([C@@H]1OC)n1c3ccccc3c3c4c(c5c6ccccc6n2c5c31)C(=O)NC4 [Staurosporine, staurosporine] |  |  |  | CE formation [3, 4]: potently inhibited; cytotoxicity [3, 4]: cytotoxicity was observed
CCOC(=O)/C=C(C)/C=C/C=C(C)/C=C/c1c(C)cc(OC)c(C)c1C [etretinate, reference compound] |  |  |  | cornified envelope formation / keratinocyte cornification ([3]; human keratinocytes, no concentration given): inhibition of keratinocyte cornification
